Data as given in patent publication US7399583B2, “Method for the identification of inhibitors of the binding of ARE-containing mRNA and a HuR protein” (Novartis AG, priority 2002, dated 2008).

Legend:
[1] = target: T1, full length HuR (Homo sapiens, UniProt Q15717); assay: Deduction of the HuR binding site: affinities of RNA fragments to full length HuR
T1 construct: made in house; host or cells: E. coli ER2566
Method: Individual RNA fragments are synthesized and the affinities (given as Kd values) to full length HuR are determined (see TABLE 2). […] An influence of the fluorescent dye is excluded by competition experiments with unlabeled RNA fragments. […] Fragments 5, 6, 7a-7d and 8a-8c serve to tests tolerance for non-Uracil (exemplified by A=adenine) and C, respectively, at the depicted (bold and underlined) positions. […] This interaction appears to follow an all-or-nothing mechanism: While sequences with single mismatches are not recognized, sequences fulfilling this motif are bound with high affinity and an invariable Kd, Kdfund, of 0.99 nM.

[2] = target: T2, sfl-HuR (soluble form of full length HuR) (Homo sapiens, UniProt Q15717); assay: 2D-FIDA-r anisotropy assay: titration of fluorescently labeled ARE RNA fragments against sfl-HuR; format: binding; conditions: 2D-FIDA-r assay, RNA fragment 5'-terminally labeled with 5'-carboxy-TMR; for Kd: read-out: Kd sfl-HuR in nM +/- St. dev.
T2 construct: made in house; host or cells: E. coli ER2566
T2 sequence (Q15717 whole entry, the tested form may be a part): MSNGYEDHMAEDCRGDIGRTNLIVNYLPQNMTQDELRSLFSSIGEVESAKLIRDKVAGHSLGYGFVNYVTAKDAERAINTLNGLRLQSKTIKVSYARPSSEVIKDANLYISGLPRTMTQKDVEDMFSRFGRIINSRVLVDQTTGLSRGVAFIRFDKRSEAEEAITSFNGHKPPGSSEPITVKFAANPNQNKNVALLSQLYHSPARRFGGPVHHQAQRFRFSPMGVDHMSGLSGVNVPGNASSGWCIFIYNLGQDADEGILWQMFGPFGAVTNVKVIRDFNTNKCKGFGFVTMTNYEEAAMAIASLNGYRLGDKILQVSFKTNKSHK
Method: (§1) In a preferred embodiment an assay of the present invention is performed by use of 2 dimensional-FIDA anisotropy analysis, wherein the fluorescence anisotropy of the complex between mRNA and HuR is determined at single molecule sensitivity by extension of the microscopic confocal detection setup to two polarisation channels.
(§2) Titration of fluorescently labeled RNA fragments corresponding to the AREs of, for example, IL-2, IL-4, IL-8, Cox-2, IL-1β or TNF-α (5′-terminally labeled with 5′-carboxy-TMR and 33, 58, 26, 35, 33 and 34 nts in length, respectively), against increasing concentrations of a soluble form of recombinant full-length HuR or HuR12 is performed.
(§3) In vitro, individual AU rich elements are bound to HuR with different affinity, although they are derived from mRNA targets which are known to be associated with HuR-mediated regulation. This fragment selectivity is retained when the third RRM as well as the hinge region are missing as is the case for HuR12. […] However, the full length protein binds to all fragments with a higher affinity. The Kd is lower by an almost constant factor of 50. In contrast, the low affinity fragments (Kd for HuR12>1 μM) are no longer recognized by the full length protein at all (see TABLE 1).

[3] = target: T3, HuR12 (Homo sapiens, UniProt Q15717); assay: 2D-FIDA-r anisotropy assay: titration of fluorescently labeled ARE RNA fragments against HuR12; format: binding; conditions: 2D-FIDA-r assay, RNA fragment 5'-terminally labeled with 5'-carboxy-TMR; for Kd: read-out: Kd HuR12 in nM +/- St. dev.
T3 construct: Mxe-intein-CBD tag (IMPACT-TWIN, pTWIN1) (C, cleaved yes); 2-MESNA thioester on the C-terminal carboxyl group (>95% of the material); made in house; host or cells: E. coli ER2566 (pTWIN1/HuR12)
T3 sequence (Q15717 2-189): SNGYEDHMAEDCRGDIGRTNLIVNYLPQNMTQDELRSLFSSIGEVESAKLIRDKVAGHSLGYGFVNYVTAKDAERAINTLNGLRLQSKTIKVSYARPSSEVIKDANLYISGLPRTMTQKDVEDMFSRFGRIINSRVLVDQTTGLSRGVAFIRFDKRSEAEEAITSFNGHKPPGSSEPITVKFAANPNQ
Method: as §1, §2, §3

[4] = Solubility: no aggregation and precipitation in aqueous buffer (size exclusion chromatography and/or UV-spectroscopy); format: physicochemical; conditions: aqueous buffer of physiological pH; for concentration at which no aggregation and precipitation is seen: spectroscopy-compatible conditions
Method: The concentration of protein used in an assay of the present invention depends on the binding affinity between a specific mRNA (fragment) and HuR, e.g. the protein concentration used in an assay of the present invention may be lower in case there is a high binding affinity between the two species or vice versa. Solvent include aqueous solvent, e.g. buffer solution, e.g. aqueous physiological buffer solution.
Expression of the cloned HuR-Intein-CBD fusion protein is induced by addition of 1 mM IPTG to a bacterial culture grown to late-logarithmic phase in LB broth medium and allowed to proceed for 6 hours at 28°. The bacterial cells are lysed by successive freezing/thawing cycles in a buffer of 20 mM Tris/Cl pH 8.0, 800 mM NaCl, 1 mM EDTA and 0.2% Pluronic F-127 (Molecular Probes). After DNA digestion, the bacterial lysates are cleared by ultracentrifugation and the fusion protein is captured onto chitin agarose beads (New England Biolabs) via the CBD. After extensive washing of the beads with lysis buffer, the recombinant protein is recovered by thiol-induced on-column self-splicing of the intein tag by addition of Na-2-MESNA to a final concentration of 50 mM and incubation for 12 hours at 4°. Any co-eluted intein tag and un-cleaved fusion protein are removed from the eluate in a second, subtractive affinity step. […]
The quality of the purified protein is controlled by denaturing SDS-PAGE, UV-spectroscopy, analytical Size Exclusion Chromatography, RP-HPLC analysis, LC/ESI-MS analysis and CD-spectroscopy, following standard protocols as described in example 2. […] Results from UV-spectroscopy, showing no absorbance at >330 nm, and analytical size exclusion chromatography, where HuR elutes as a single peak with a maximum at 24.2 kD, provide evidence that no higher aggregation states of the protein are present at the given buffer concentrations.
The folding of the protein after the purification procedure as well as following fluorescent labeling is monitored by CD-Spectroscopy.

T1 sequence (Q15717 whole entry, the tested form may be a part): as the sequence (Q15717 whole entry, the tested form may be a part) above

Substance	Kd [3]	Kd [2]	further results
4a (AUUUAUUUAUUUA; chemistry not given here)			Kd ([1]; binding to full length HuR): 0.0014 µM; Kd (in nM) ([1]; binding to full length HuR): not bound
4c (AUUUAUUUAUUUA; chemistry not given here)			Kd (in nM) ([1]; binding to full length HuR): not bound
4d (AUUUAUUUAUUUA; chemistry not given here)			Kd (in nM) ([1]; binding to full length HuR): not bound
AUUAUUAUUAUUAUUA (chemistry not given here) [(AUU)5A]	1590 nM		Kd sfl-HuR in nM +/- St. dev. [2]: n.b.
AUUAUUUAUUAUUUAUUUAUUAUUUAUUUAUUUA (chemistry not given here) [TNF-α, synthetic RNA fragment of the TNF-α ARE, 5'-terminally labeled with 5'-carboxy-TMR]	21.4 nM	0.35 nM	
AUUUAUUUAUUUAUUUA (chemistry not given here) [(AUUU)4A]	126 nM	2.09 nM	
AUUUAUUUAUUUAUUUAUUUA (chemistry not given here) [(AUUU)5A]	23.5 nM	0.4 nM	
AUUUUAAUUUAUGAGUUUUUGAUAGCUUUAUUUUUUAAGUAUUUAUAUAUUUAUAA (chemistry not given here) [IL-4, synthetic RNA fragment of the IL-4 ARE, 5'-TMR labeled]	154 nM	3.21 nM	
HuR12: HuR variant encompassing the first two RRMs, aa1-189 or aa2-189 of SEQ ID NO:1			concentration at which no aggregation and precipitation is seen [4]: > 100 µM
UAGAGUUCAUCGCAAUUGCAC (chemistry not given here) [irrelevant seq., reference compound]			Kd sfl-HuR in nM +/- St. dev. [2]: n.b.; Kd HuR12 in nM +/- St. dev. [3]: n.b.
UAUUAAUUUAAUUAUUUAAUAAUAUUUAUAUUAAA (chemistry not given here) [Cox-2 (2), synthetic RNA fragment of the Cox-2 ARE, 5'-TMR labeled]	229 nM	13.6 nM	
UAUUUAUUAUUUAUGUAUUUAUUUAA (chemistry not given here) [IL-8, synthetic RNA fragment of the IL-8 ARE, 5'-TMR labeled]	42.9 nM	1.09 nM	
UAUUUAUUUAAAUAUUUAAAUUUUAUAUUUAUU (chemistry not given here) [IL-2, synthetic RNA fragment of the IL-2 ARE, 5'-TMR labeled]	498 nM	9.5 nM	
UAUUUAUUUAUUUAUUUGUUUGUUUGUUUUAUU (chemistry not given here) [IL-1β, synthetic RNA fragment of the IL-1β ARE, 5'-TMR labeled]	18.4 nM	0.12 nM	
polyU [reference compound]			binding / recognition by HuR (in words) ([1]; full length HuR): bound by HuR with high affinity
sfl-HuR: full-length human HuR (SEQ ID NO:1 or 2) whose C-terminal amino acid is esterified by Na-2-MESNA as a thioester			concentration at which no aggregation and precipitation is seen [4]: > 0.5 µM
wild-type full length HuR: unmodified wild-type full length HuR protein			solubility in aqueous solvent (in words) ([4]; without micelle-forming detergents or glycerol, protein >0.5 μM): practically insoluble
